Laboratory results reported in paper PMC13185819, “De Novo Multi‐Mechanism Antimicrobial Peptide Design via Multimodal Deep Learning” (Advanced Science, 2026).
≈ marks a conversion by molar mass, not a printed value. Residues, ends and D or L forms follow the SMILES beside them.

Legend:
[1] = system: intact or abraded skin of mice; assay: Mouse skin tolerance test; type: in vivo, C57BL/6J mice
Description: For the skin local safety study, the intact or abraded skin of the mice was treated once with antimicrobial peptides QLX‐3DV‐1, QLX‐3DV‐2, or water. In brief, ten‐week‐old female C57BL/6J mice (n = 8 for each group) were anesthetized using isoflurane and administered buprenorphine as an analgesic at 0.1 mg/kg intraperitoneally. After removing the back hair of the mice, the skin on the back of the mice in the scratch group was sanded with 60‐grit sandpaper until the skin oozed blood. The intact skin group received no additional treatment except shaving. 10 µL QLX‐3DV‐1 and QLX‐3DV‐2 (150 mg/mL) or water was applied uniformly over the intact or abraded skin to assess the acute dermal toxicity. Groups without any addition served as untreated controls. Weight changes were recorded over 72 h. Histopathological characteristics of treated skin detected by H&E staining on the third day.

[2] = system: 25 strains of ESKAPE MDROs; type: cell-based; conditions: lowest value over gram-negative strains
Description: (§1) Standard strains included S. aureus ATCC33592, S. aureus CICC25138, and Salmonella enterica ATCC14028, which were purchased from the China Center of Industrial Culture Collection (CICC). Standard strains including E.coli CMCC44102, Salmonella enterica CMCC50071, and S. aureus CMCC26003 were purchased from the National Center for Medical Culture Collections (CMCC). […] All experiments using the above strains were carried out in a BSL‐2 laboratory. The clinical laboratory of Qilu Hospital detected bacterial resistance to various antibiotics. All strains were streaked on Nutrient Broth (NB) agar medium and incubated overnight at 37°C.
(§2) The antimicrobial activity of the peptides was examined in sterile 96‐well plates using the broth microdilution according to the CLSI standard. The colonies were suspended in saline solution, the turbidity was adjusted to McFarland 0.5 to reach a bacterial concentration of 10^8 CFU/mL, and again diluted 100 times for the inhibition test. Then, 50 µL of bacterial suspension at 1 × 10^6 CFU/mL was incubated with the same volume of different concentrations of peptide solution [serial twofold dilutions in Mueller–Hinton Broth (Hopebio)]. […] All experiments were performed with three independent replicates.

mice = assay: Systemic safety, intraperitoneal injection; type: in vivo, C57BL/6J mice
Description: The 10‐week‐old female C57BL/6J mice were randomly divided into three groups (n = 8 for each group). […] Mouse survival was monitored for 96 h. For pathologic analysis, mouse liver and kidneys were obtained by surgery for hematoxylin‐eosin (HE) staining after treatment with 40 mg/kg QLX‐3DV‐1 and QLX‐3DV‐2 for 12 h.

P. aeruginosa 112 = type: cell-based
Description: as §1, §2

P. aeruginosa 116 = type: cell-based
Description: as §1, §2

K. pneumoniae 7713 = type: cell-based
Description: as §1, §2

S. aureus ATCC33592 = type: cell-based
Description: as §1, §2

E. faecium 21 = type: cell-based
Description: as §1, §2

S. aureus CMCC26003 = type: cell-based
Description: as §1, §2

E.coli 208 = type: cell-based
Description: as §1, §2

S. aureus CICC25138 = type: cell-based
Description: as §1, §2

E. faecium 1042 = type: cell-based
Description: as §1, §2

E.coli CMCC44102 = type: cell-based
Description: as §1, §2

P. aeruginosa 119 = type: cell-based
Description: as §1, §2

E.coli 110 = type: cell-based
Description: as §1, §2

S. aureus 103 = type: cell-based
Description: as §1, §2

S. aureus 129 = type: cell-based
Description: as §1, §2

SMILES	MIC (μg/mL) P. aeruginosa 112 (P. aeruginosa 112) [µg/mL]	MIC (μg/mL) P. aeruginosa 116 (P. aeruginosa 116) [µg/mL]	MIC (μg/mL) K. pneumoniae 7713 (K. pneumoniae 7713) [µg/mL]	MIC (μg/mL) S. aureus ATCC33592 (S. aureus ATCC33592) [µg/mL]	MIC (μg/mL) E. faecium 21 (E. faecium 21) [µg/mL]	MIC (μg/mL) S. aureus CMCC26003 (S. aureus CMCC26003) [µg/mL]	MIC (μg/mL) E.coli 208 (E.coli 208) [µg/mL]	MIC (μg/mL) S. aureus CICC25138 (S. aureus CICC25138) [µg/mL]	MIC (μg/mL) E. faecium 1042 (E. faecium 1042) [µg/mL]	MIC (μg/mL) E.coli CMCC44102 (E.coli CMCC44102) [µg/mL]	MIC (μg/mL) P. aeruginosa 119 (P. aeruginosa 119) [µg/mL]	MIC (μg/mL) E.coli 110 (E.coli 110) [µg/mL]	MIC (μg/mL) S. aureus 103 (S. aureus 103) [µg/mL]	MIC (μg/mL) S. aureus 129 (S. aureus 129) [µg/mL]	other results
CC[C@H](C)[C@H](NC(=O)[C@H](CCCCN)NC(=O)[C@H](Cc1c[nH]c2ccccc12)NC(=O)[C@@H](N)CCCCN)C(=O)N[C@@H](CCCCN)C(=O)N[C@@H](Cc1c[nH]c2ccccc12)C(=O)N1CCC[C@H]1C(=O)N[C@@H](CO)C(=O)N[C@@H](CCCNC(=N)N)C(=O)N[C@@H](Cc1c[nH]c2ccccc12)C(=O)N[C@@H](Cc1ccccc1)C(=O)N[C@@H](CCCNC(=N)N)C(=O)N[C@@H](CCCCN)C(=O)N[C@@H](CC(C)C)C(N)=O [QLX-3DV-1] (H-KWKIKWPSRWFRKL-NH2)	–	–	–	–	–	–	–	–	–	–	–	–	–	–	Gross pathology findings (Number of mice) ([1]; mouse, in vivo): 0 / 8; Histopathological findings, Fibrosis in the dermis (Number of mice) ([1]; mouse, in vivo): 0 / 8; Histopathological findings, Lymphohistiocytic infiltration in the dermis (Number of mice) ([1]; mouse, in vivo): 0 / 8; Skin irritation, Erythema formation (Number of mice) ([1]; mouse, in vivo): 0 / 8; skin irritation or pathology at 72 h post-treatment ([1]; shaved intact and abraded skin, 10 µL of 150 mg/mL): no signs of skin irritation or pathology; MIC against gram-negative strains, as low as [2]: 4 µg/mL (≈ 2.04 µM); survival rate over 96 h (mice; intraperitoneal injection, 60 mg/kg, 96 h, n = 8): 100%; hepatorenal toxicity (H&E of liver and kidney) (mice; intraperitoneal, 40 mg/kg, 12 h): no significant hepatorenal toxicity
CC[C@H](C)[C@H](NC(=O)[C@@H](NC(=O)[C@@H](N)CCCCN)C(C)C)C(=O)N[C@@H](CC(N)=O)C(=O)N[C@@H](Cc1ccc(O)cc1)C(=O)N[C@@H](CCCCN)C(=O)N[C@@H](CC(C)C)C(=O)N[C@@H](CCCNC(=N)N)C(=O)N[C@@H](Cc1ccccc1)C(=O)N[C@@H](Cc1ccccc1)C(=O)N[C@@H](Cc1c[nH]c2ccccc12)C(=O)N[C@@H](C)C(=O)N1CCC[C@H]1C(=O)N[C@@H](Cc1c[nH]c2ccccc12)C(=O)N[C@@H](Cc1ccccc1)C(=O)N[C@@H](CCCCN)C(=O)N[C@@H](CCCCN)C(=O)N[C@@H](CC(C)C)C(N)=O [QLX-3DV-15] (H-KVINYKLRFFWAPWFKKL-NH2)	4 (≈ 1.68 µM)	32 (≈ 13.4 µM)	64 (≈ 26.8 µM)	16 (≈ 6.71 µM)	4 (≈ 1.68 µM)	4 (≈ 1.68 µM)	4 (≈ 1.68 µM)	16 (≈ 6.71 µM)	4 (≈ 1.68 µM)	8 (≈ 3.36 µM)	64 (≈ 26.8 µM)	8 (≈ 3.36 µM)	16 (≈ 6.71 µM)	8 (≈ 3.36 µM)	–
CC[C@H](C)[C@H](NC(=O)[C@H](CC(C)C)NC(=O)[C@H](C)NC(=O)[C@H](CCCNC(=N)N)NC(=O)[C@@H](N)CCCNC(=N)N)C(=O)N[C@@H](Cc1ccc(O)cc1)C(=O)N[C@@H](CC(N)=O)C(=O)N[C@@H](CC(C)C)C(=O)N[C@H](C(=O)N[C@@H](CCCCN)C(=O)N[C@@H](CCCCN)C(=O)N[C@@H](Cc1c[nH]c2ccccc12)C(=O)N[C@@H](C)C(=O)N[C@@H](Cc1ccc(O)cc1)C(=O)N[C@@H](CO)C(=O)N[C@@H](Cc1ccc(O)cc1)C(=O)N[C@@H](CO)C(=O)N[C@@H](C)C(=O)N[C@H](C(N)=O)[C@@H](C)O)C(C)C [QLX-3DV-16] (H-RRALIYNLVKKWAYSYSAT-NH2)	16 (≈ 6.95 µM)	16 (≈ 6.95 µM)	16 (≈ 6.95 µM)	128 (≈ 55.6 µM)	8 (≈ 3.47 µM)	4 (≈ 1.74 µM)	16 (≈ 6.95 µM)	128 (≈ 55.6 µM)	16 (≈ 6.95 µM)	4 (≈ 1.74 µM)	128 (≈ 55.6 µM)	8 (≈ 3.47 µM)	64 (≈ 27.8 µM)	128 (≈ 55.6 µM)	–
